Assay results from US12351634B2, “Use of cilengitide for ameliorating cardiac fibrosis occurring in response to myocardial infarction” (priority 2018, dated 2025).

Key:
[1] = system: mice subjected to MI via a complete LAD ligation; experiment: Myocardial infarction by LAD ligation, cilengitide vs vehicle; format: in vivo, mouse
[2] = system: FACS-isolated cardiac PW1+ cells; experiment: Pharmacological inhibition of PW1+ cells in vitro, Q-PCR on fibrosis markers; format: cell-based, mouse; settings: cilengitide 300 nM, 1000 nM vs vehicle, treated for 48 h
Description: Animals were injected with heparin (100 UI/25 g) before euthanasia. The right atrium was carefully nicked with surgical scissors and the heart was perfused with 10 mL of PBS (Gibco) through the right ventricle to remove the blood. After collecting the heart, the atria were trimmed away and the ventricles were finely sliced (0.5-1 mm^3). Cardiac cells were dissociated at 37° C. for 30 min by enzymatic digestion with 480 U/mL collagenase II (Worthington) in DPBS (GIBCO). The digestion was stopped with DMEM (Life Technologies) supplemented into 10% FBS (Sigma) and 1% penicillin/streptomycin (P/S; Life Technologies) and the cell suspension was filtered through 100 μm Falcon cell strainer before centrifugation at 416 g for 10 min at 4° C. The cell pellet was re-suspended in 500 μL of Red Blood Cell Lysing (RBCL) Buffer to lyse red blood cells at RT for 30 sec. DPBS was added before 10 min centrifugation in same conditions as above. The cell pellet was then re-suspended in 300 μL of HBSS (Gibco) containing 1% FBS (HBSS-1% FBS) to perform immunostaining for 45 min on ice in dark. The list of antibodies used is reported in supplemental table 1. After incubation, HBSS-1% FBS was added and cells centrifuged at 416 g for 10 min at 4° C. to perform PW1+ cells staining. For this, 300 μL of HBSS-1% FBS containing 60 μM of 5-Dodecanoylaminofluorescein Di-β-D-Galactopyranoside (C12FDG, ThermoFisher Scientific) a substrate for β-gal detection by flow cytometry was added on cells then incubated in dark at 37° C. for 1 h under constant agitation. Reaction was stopped by the addition of HBSS-1% FBS. After cell centrifugation, the pellet was re-suspended in 200 μL of HBSS-1% FBS, the viability dye propidium iodide (Sigma) was added and the samples were filtered through a 50 μm Filcon (BD bioscience) just before the analysis.
FACS sorted PW1^+ or PW1^− cells were plated at the density of 25 000 cell per cm^2 in culture plates coated with attachment factor (ThermoFisher Scientific). Cells were left to adhere overnight with 0.5 mL of growth medium (DMEM 10% FBS 1% P/S). The culture medium was changed the day after. At day 5, culture media was changed and supplemented with 0, 300 nM, or 1 μM of cilengitide. At day 6, medium was removed, and cells were washed twice with PBS. Cells were then lysed and RNA extracted followed by an RT-PCR. A Q-PCR was finally performed on selected fibrosis markers.
To test this hypothesis, we first investigated whether CD51 pharmacological inhibition affects the expression of profibrotic genes in freshly FACS-isolated cardiac PW1^+ cells. These cells were seeded and cultured for 4 days and then treated for 48 h with growing concentrations of cilengitide or vehicle. […]

[3] = system: cardiac PW1+ cells in PW1nLacZ-reporter mouse post-MI hearts; experiment: Short-term lineage tracing of cardiac PW1+ cells in post-MI heart sections; format: in vivo; settings: cardiac sections of post-MI (7 days) hearts, vs vehicle
Description: Male 8 weeks-old C57BL/6 or PW1-reporter (PW1^nLacZ) mice were anesthetized in an induction chamber with 2% isoflurane mixed with 1.0 L/min 100% 02 and placed on a supine position on a heating pad to maintain body temperature. The mice were intubated with endotracheal tube and then connected to a rodent ventilator (180 breaths/min and a tidal volume of 200 μl). During surgical procedure anesthesia is maintained at 1.5-2% isoflurane with O2. The chest was accessed from the left side through the intercostal space and the pericardium incised. The left anterior descending coronary artery (LAD) was exposed and encircled with a 8.0 prolene suture at the apex of the left ventricle. The suture was briefly snared to confirm the ligation by blanching the arterial region. Mice were analyzed 7 days after LAD permanent ligation.
Male C57BL/6J mice (Janvier labs) or PW1-reporter (PW1^nLacZ) mice received Cilengitide at 10 mg/kg/day (Adooq bioscience, ref: A12372) or vehicle i.p. for 14 days. LAD surgery was performed 7 days after starting cilengitide or vehicle administration. Mice were divided in 4 groups: MI-CIL (Cilengitide), MI-Veh (vehicle), Ctrl-CIL and Ctrl-Veh. […]

[4] = system: integrin αV, including αVβ1, αVβ3 and αVβ5; settings: cited from earlier work
[5] = sham animals (no MI), cilengitide 10 mg/kg/day i.p., data not shown

Compound: CC(C)[C@H]1C(=O)N[C@@H](CCCN=C(N)N)C(=O)NCC(=O)N[C@@H](CC(=O)O)C(=O)N[C@H](Cc2ccccc2)C(=O)N1C [cilengitide, 2-[(2S,5R,8S,11S)-5-benzyl-11-{3-[(diaminomethylidene)amino]propyl}-7-methyl-3,6,9,12,15-pentaoxo-8-(propan-2-yl)-1,4,7,10,13-pentaazacyclopentadecan-2-yl]acetic acid]
- survival ([1]; 7 days after MI, cilengitide 10 mg/kg/day i.p. for 14 days, started 7 days before LAD ligation, vs vehicle, p<0.05 log-rank): significant improvement
- cardiac function as measured by left ventricular ejection fraction ([1]; 7 days after MI, cilengitide 10 mg/kg/day i.p., vs vehicle): significant increase
- infarct size ([1]; 7 days after MI, masson trichrome, digital image quantification, 10 mg/kg/day i.p., vehicle 56.8±14.9%, p=0.0008): 38.8±7.9%
- interstitial fibrosis measured in the remote myocardial area ([1]; 7 days after MI, picrosirius red, 10 mg/kg/day i.p., vehicle 36.8±13.1%, p<0.0001): 15.9±10.4%
- cardiac rupture (adverse outcome) ([1]; post-MI mice under cilengitide treatment): did not observe
- cardiac fibrosis in sham animals [1, 5]: not associated with any changes
- cardiac function in sham animals [1, 5]: not associated with any changes
- survival in sham animals [1, 5]: not associated with any changes
- Colla1 expression [2]: not affected
- aSma (or Acta2) expression [2]: significant down-regulation
- mmp2 expression [2]: significant down-regulation
- tgfrb1 expression [2]: significant down-regulation
- number of β-gal+ cells that did not express vimentin ([3]; p<0.001): significant increase
- proportion of cells co-expressing β-gal and vimentin ([3]; p<0.05): significant reduction
- inhibiting activity against the integrin αV [4]: strong inhibiting activity
